{"source": "paper PMC9894920", "about": "“Development of an improved and specific inhibitor of NADPH oxidase 2 to treat traumatic brain injury” (Redox Biology, 2023)", "assay_type_in_all_cases": "cell-based", "key": {"NOX2 [1]": {"biological_target": "T1, NOX2 (Mus musculus, UniProt Q61093)", "T1 construct": "relative potencies in primary mouse neutrophils enriched from bone marrow; endogenous in cells; host or cells: primary mouse bone-marrow granulocytes", "T1 sequence (Q61093 2-570 limits assumed)": "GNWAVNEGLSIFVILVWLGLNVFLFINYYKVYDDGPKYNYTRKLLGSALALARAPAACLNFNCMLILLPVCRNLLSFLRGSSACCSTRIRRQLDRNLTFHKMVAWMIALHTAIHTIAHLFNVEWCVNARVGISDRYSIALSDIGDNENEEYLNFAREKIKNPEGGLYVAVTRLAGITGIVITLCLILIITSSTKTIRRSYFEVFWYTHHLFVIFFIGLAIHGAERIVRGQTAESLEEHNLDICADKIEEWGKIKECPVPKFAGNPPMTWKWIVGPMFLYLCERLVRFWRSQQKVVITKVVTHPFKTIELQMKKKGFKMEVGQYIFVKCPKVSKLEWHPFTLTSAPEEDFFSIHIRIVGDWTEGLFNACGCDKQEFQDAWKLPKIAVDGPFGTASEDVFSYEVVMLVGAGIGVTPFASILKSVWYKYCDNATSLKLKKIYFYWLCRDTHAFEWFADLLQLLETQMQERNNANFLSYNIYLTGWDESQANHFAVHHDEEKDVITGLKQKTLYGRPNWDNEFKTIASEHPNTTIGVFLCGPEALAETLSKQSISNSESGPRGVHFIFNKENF", "T1 sequence (Q61462 2-192 partner limits assumed)": "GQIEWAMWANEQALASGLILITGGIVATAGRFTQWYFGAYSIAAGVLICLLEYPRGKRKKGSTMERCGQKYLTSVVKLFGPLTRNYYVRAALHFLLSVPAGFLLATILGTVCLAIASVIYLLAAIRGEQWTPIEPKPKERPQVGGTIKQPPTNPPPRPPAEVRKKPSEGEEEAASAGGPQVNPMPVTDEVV", "test": "NOX2 activity in primary mouse neutrophils enriched from bone marrow", "details": "SD, n = 8 mice", "procedure": "Human blood was obtained after informed consent by the Department of Transfusion Medicine (NIH Clinical Center) and provided as de-identified specimens. Human granulocytes were isolated using Percoll density fractionation as described and NOX2 activity was assessed in white polypropylene flat bottom 96 well plates following 15 min of preincubation at 37 °C with compounds or vehicle controls using 50 μM luminol as a chemiluminescence enhancer in an assay volume of 100 μl RPMI1640 with 1.1 × 10^5 cells/well in Varioskan Lux luminometer for 30 cycles of 1 s per well (approximately 1 h).\nMouse granulocytes were isolated from bone marrow essentially as described except bones were not sterilized in ethanol and marrow was not flushed through a 100 μm strainer. Furthermore, RPMI1640 was supplemented with 10% FBS, 2 mM EDTA, and 25 mM HEPES buffer and penicillin/streptomycin was omitted. Polymorphonuclear leukocytes (PMN) concentration and purity (>90% granulocytes) were assessed microscopically using 3% acetic acid and a hemacytometer. NOX2 activity was assessed as described above with human granulocytes."}, "NOX2 [2]": {"biological_target": "T2, NOX2 (Homo sapiens, UniProt P04839)", "T2 sequence (P04839 2-570 limits assumed)": "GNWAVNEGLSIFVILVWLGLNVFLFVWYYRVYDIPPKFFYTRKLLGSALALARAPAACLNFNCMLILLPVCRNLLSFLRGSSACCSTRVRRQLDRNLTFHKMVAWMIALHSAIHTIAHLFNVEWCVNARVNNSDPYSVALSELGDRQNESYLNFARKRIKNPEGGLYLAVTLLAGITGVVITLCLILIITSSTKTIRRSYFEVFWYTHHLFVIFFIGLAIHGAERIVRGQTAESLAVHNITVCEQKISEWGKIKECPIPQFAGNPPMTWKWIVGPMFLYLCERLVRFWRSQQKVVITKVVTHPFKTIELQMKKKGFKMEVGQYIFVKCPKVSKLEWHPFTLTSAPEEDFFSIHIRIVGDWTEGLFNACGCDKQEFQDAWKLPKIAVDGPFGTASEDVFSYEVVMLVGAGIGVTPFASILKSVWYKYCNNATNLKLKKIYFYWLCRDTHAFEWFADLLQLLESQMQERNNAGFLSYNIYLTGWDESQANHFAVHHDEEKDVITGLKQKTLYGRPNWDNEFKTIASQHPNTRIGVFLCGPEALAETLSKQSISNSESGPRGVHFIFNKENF", "T2 sequence (P13498 2-195 partner limits assumed)": "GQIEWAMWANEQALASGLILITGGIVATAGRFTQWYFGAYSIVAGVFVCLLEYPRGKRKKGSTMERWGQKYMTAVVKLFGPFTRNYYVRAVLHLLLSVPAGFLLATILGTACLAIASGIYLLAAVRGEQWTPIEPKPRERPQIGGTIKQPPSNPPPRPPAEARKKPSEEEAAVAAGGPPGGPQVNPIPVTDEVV", "test": "Expi293 whole cell assay, NOX2 overexpression", "details": "Expi293 cells expressing NOX2", "method": "Given concerns about previous assays for specific NOX family members [45] we here report the first use of the Expi293 Expression System (Thermo Scientific) to overexpress NOX1, 2, 3, 4, and 5 in excess of any endogenous NOX proteins present in these cells. Transfections were performed following the manufacturer's instructions using the plasmids for each NOX as described in Supplemental Table 2 except that the enhancer solution provided with the Expi293 system was not used because it promoted enzyme activation.\nAfter the times indicated in Supplemental Table 2, cells were washed and 50,000 added per well of a white 96-well plate (Greiner) along with 50 μM Luminol and 2.5 U horseradish peroxidase/mL in a volume of 90 μl for NOX1, NOX2, and NOX5. Inhibitors or vehicle controls were added and cells were incubated for 20 min at 37 °C prior to activation with the indicated stimuli. […] Chemiluminescence was measured every 2 min for 1 s per well at 37 °C in a Varioscan Multimode reader. AUC data were analyzed using GraphPad Prism using non-linear regression analysis after expressing relative to control alone (maximum ROS production)."}, "NOX1": {"biological_target": "T3, NOX1 (Homo sapiens, UniProt Q9Y5S8)", "T3 construct": "expressed in transfected cells; host or cells: Expi293 (human embryonic kidney) cells, transient transfection", "T3 sequence (Q9Y5S8 1-564)": "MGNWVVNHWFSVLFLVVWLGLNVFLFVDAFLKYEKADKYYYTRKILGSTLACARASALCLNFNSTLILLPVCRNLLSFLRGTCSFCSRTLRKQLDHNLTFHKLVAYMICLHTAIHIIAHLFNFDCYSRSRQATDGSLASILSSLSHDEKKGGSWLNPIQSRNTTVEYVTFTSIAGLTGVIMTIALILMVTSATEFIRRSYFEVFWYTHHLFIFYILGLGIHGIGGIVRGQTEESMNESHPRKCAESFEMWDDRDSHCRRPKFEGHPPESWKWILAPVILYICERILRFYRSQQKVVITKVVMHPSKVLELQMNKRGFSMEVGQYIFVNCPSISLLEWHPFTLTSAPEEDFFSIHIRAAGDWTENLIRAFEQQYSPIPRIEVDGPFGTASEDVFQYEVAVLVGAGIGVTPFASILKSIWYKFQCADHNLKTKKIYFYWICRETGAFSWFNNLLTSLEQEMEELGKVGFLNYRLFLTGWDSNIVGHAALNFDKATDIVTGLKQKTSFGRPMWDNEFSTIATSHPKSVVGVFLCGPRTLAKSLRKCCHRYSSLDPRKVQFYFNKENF", "T3 sequence (P13498 2-195 partner limits assumed)": "T2 sequence (P13498 2-195 partner limits assumed)", "test": "Expi293 whole cell assay, NOX1 overexpression", "details": "highest dose about 100x the IC50 versus NOX2", "procedure": "Given concerns about previous assays for specific NOX family members we here report the first use of the Expi293 Expression System (Thermo Scientific) to overexpress NOX1, 2, 3, 4, and 5 in excess of any endogenous NOX proteins present in these cells. Transfections were performed following the manufacturer's instructions using the plasmids for each NOX as described in Supplemental Table 2 except that the enhancer solution provided with the Expi293 system was not used because it promoted enzyme activation.\nAfter the times indicated in Supplemental Table 2, cells were washed and 50,000 added per well of a white 96-well plate (Greiner) along with 50 μM Luminol and 2.5 U horseradish peroxidase/mL in a volume of 90 μl for NOX1, NOX2, and NOX5. Inhibitors or vehicle controls were added and cells were incubated for 20 min at 37 °C prior to activation with the indicated stimuli. For NOX3 and NOX4 (constitutively active), cells were incubated with inhibitor or vehicle control prior to the addition of luminol and HRP. Chemiluminescence was measured every 2 min for 1 s per well at 37 °C in a Varioscan Multimode reader. AUC data were analyzed using GraphPad Prism using non-linear regression analysis after expressing relative to control alone (maximum ROS production)."}}}
{"smiles": "Cn1ccc(S(=O)(=O)Nc2ccnc3c2c(-c2ccc4ccn(C)c4c2)cn3C2CC2)n1", "note": "[NCATS-SM7270, N-(1-cyclopropyl-3-(1-methyl-1H-indol-6-yl)-1H-pyrrolo [2,3-b]pyridin-4-yl)-1-methyl-1H-pyrazole-3-sulfonamide]", "values": [{"measurement": "IC50", "setting": "NOX2 [1]", "result": "4.28 ± 1.05", "unit": "µM"}, {"measurement": "improvement in potency toward NOX2 compared with GSK2795039", "setting": "NOX2 [2]", "result": 2, "unit": "fold"}, {"measurement": "activity against NOX1", "setting": "NOX1", "result": "only marginal activity at the highest dose tested"}]}
